Experiments:
Mu-type opioid receptor = Mu-type opioid receptor (Homo sapiens, UniProt P35372); assay: DRUGMATRIX: Opiate mu (OP3, MOP) radioligand binding (ligand: [3H] Diprenorphine); format: cell membranes, CHO-K1, Membrane; conditions: cho-k1; Not Active = under 50% inhibition at 10 µM
[1] = biological target: Prostaglandin G/H synthase 1 (Homo sapiens, UniProt P23219); assay: biochemical; format: tissue-based, Platelet;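 further: inhibition of COX-1 enzyme activity, with arachidonic acid supplied as substrate; in other assays of this panel Not Active means under 50% inhibition at 10 µM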
Chain of Prostaglandin G/H synthase 1 (P23219 whole entry): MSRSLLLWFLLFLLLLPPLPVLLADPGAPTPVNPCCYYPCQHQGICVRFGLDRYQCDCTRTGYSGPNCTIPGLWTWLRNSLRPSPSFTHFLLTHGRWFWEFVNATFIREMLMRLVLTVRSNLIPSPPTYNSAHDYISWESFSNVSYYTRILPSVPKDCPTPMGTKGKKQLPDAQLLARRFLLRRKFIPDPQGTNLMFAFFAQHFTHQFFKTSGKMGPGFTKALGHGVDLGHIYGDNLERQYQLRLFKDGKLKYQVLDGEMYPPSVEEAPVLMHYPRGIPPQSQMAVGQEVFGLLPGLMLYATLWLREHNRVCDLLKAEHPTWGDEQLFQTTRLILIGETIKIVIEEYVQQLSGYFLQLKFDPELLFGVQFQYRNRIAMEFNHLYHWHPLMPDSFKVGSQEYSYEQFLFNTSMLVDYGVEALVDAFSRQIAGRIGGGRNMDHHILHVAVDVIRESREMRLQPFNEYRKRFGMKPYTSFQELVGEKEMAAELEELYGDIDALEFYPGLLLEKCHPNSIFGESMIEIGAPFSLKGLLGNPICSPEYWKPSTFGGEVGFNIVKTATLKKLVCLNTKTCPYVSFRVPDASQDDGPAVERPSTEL

[2] = DRUGMATRIX: beta-Lactamase enzyme inhibition (substrate: Nitrocefin); design: species or system Bacillus cereus; conditions: Not Active = under 50% inhibition at 10 µM
[3] = biological target: T1, Vasoactive intestinal polypeptide receptor 1 (Homo sapiens, UniProt P32241); format: cell membranes, Membrane; conditions: ht-29; further: in other assays of this panel Not Active means under 50% inhibition at 10 µM
T1 sequence (P32241 whole entry): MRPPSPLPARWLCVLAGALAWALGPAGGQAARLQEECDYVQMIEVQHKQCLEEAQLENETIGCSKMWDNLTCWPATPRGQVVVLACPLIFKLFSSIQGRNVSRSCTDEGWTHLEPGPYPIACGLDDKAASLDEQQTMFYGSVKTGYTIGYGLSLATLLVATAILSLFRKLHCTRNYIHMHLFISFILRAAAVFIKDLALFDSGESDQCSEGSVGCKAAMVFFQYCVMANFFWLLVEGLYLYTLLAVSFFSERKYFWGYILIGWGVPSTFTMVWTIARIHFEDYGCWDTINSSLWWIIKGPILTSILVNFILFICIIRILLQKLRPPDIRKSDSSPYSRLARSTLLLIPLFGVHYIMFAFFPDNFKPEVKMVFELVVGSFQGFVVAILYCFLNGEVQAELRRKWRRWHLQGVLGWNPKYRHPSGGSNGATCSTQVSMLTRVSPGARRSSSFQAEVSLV

D(4) dopamine receptor = biological target: T2, D(4) dopamine receptor (Homo sapiens, UniProt P21917); assay: DRUGMATRIX: Dopamine D4.2 radioligand binding (ligand: [3H] Spiperone); format: cell membranes, CHO-K1, Membrane; conditions: cho-k1; Not Active = under 50% inhibition at 10 µM
T2 sequence (P21917 whole entry): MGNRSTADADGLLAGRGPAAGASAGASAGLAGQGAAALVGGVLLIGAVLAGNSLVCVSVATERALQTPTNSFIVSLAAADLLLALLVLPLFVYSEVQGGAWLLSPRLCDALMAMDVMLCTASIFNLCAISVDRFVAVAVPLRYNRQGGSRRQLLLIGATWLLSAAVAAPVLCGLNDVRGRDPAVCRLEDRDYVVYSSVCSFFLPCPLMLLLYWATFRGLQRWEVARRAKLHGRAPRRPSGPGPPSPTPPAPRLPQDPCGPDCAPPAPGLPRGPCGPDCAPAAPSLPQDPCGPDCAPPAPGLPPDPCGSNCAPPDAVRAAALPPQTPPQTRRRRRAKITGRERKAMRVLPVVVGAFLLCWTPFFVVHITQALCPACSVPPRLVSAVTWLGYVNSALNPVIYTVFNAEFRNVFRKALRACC

[4] = biological target: Sodium-dependent dopamine transporter (Homo sapiens, UniProt Q01959); assay: DRUGMATRIX: Dopamine Transporter radioligand binding (ligand: [125I] RTI-55); format: cell membranes, CHO-K1, Membrane; conditions: cho-k1; Not Active = under 50% inhibition at 10 µM
Chain of Sodium-dependent dopamine transporter (Q01959 whole entry): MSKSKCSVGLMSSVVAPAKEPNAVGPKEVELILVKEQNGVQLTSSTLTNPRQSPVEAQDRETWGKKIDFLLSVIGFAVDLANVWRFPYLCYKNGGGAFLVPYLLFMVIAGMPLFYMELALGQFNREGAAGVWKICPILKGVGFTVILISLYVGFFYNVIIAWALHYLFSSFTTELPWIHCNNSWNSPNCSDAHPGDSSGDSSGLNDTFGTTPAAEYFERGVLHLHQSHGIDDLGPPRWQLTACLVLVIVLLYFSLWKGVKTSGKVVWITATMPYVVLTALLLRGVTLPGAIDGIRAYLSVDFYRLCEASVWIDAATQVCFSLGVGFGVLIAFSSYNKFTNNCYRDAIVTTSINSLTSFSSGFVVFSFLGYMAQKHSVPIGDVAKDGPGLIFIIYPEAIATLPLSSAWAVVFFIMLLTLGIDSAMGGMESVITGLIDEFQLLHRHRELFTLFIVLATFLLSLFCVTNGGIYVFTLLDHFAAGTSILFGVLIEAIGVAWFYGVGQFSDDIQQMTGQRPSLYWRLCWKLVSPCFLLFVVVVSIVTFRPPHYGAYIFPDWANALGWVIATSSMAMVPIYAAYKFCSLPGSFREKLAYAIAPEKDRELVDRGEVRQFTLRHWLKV

[5] = DRUGMATRIX: ATPase, Na+/K+ enzyme inhibition (substrate: ATP); format: tissue-based, Sus scrofa, Heart; conditions: Not Active = under 50% inhibition at 10 µM

Chain of Mu-type opioid receptor (P35372 whole entry): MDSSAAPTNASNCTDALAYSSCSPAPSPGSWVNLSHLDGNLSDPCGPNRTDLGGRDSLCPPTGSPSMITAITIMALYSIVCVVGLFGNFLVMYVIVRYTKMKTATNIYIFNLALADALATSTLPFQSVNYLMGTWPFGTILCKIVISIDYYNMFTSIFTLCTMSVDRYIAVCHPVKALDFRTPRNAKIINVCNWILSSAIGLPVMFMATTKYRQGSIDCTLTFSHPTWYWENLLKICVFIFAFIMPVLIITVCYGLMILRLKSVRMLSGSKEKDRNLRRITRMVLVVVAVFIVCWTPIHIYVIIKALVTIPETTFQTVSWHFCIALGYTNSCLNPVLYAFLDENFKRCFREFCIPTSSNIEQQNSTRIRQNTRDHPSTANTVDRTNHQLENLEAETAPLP

Structure (SMILES) | IC50 (Mu-type opioid receptor) | IC50 ([1]; platelet) | IC50 [2] | Ki [2] | IC50 [3] | IC50 (D(4) dopamine receptor) | IC50 [4] | IC50 [5] | Ki [5] | IC50 ([1]; read-out: IC50)
CC(C)CN(C[C@@H](O)[C@H](Cc1ccccc1)NC(=O)O[C@H]1CCOC1)S(=O)(=O)c1ccc(N)cc1 | Not Active | Not Active | Not Active | Not Active | Not Active | Not Active | Not Active | Not Active | Not Active | 
c1ccc(Nc2ccc(Nc3ccccc3)cc2)cc1 | Not Active |  | Not Active | Not Active | Not Active | Not Active | Not Active | Not Active | Not Active | 260 nM
COc1cc2c3cc1Oc1cc(ccc1O)C[C@@H]1c4c(cc(OC)c(O)c4Oc4ccc(cc4)C[C@@H]3N(C)CC2)CC[N+]1(C)C.[Cl-] | Not Active | Not Active | Not Active | Not Active | Not Active | Not Active | Not Active | Not Active | Not Active | 
NC(=O)N1c2ccccc2CCc2ccccc21 | Not Active | Not Active | Not Active | Not Active | Not Active | Not Active | Not Active | Not Active | Not Active | 
O=C1CC[C@@H](N2C(=O)c3ccccc3C2=O)C(=O)N1 | Not Active | Not Active | Not Active | Not Active | Not Active | Not Active | Not Active | Not Active | Not Active | 
Cc1onc(O)c1CC(N)C(=O)O (racemic) [(R,S)-AMPA] | Not Active | Not Active | Not Active | Not Active | Not Active | Not Active | Not Active | Not Active | Not Active | 
Cc1ccc2cc3c(ccc4ccccc43)c3c2c1CC3 [3-METHYLCHOLANTHRENE] |  | Not Active | Not Active | Not Active | Not Active | Not Active | Not Active | Not Active | Not Active | 
CC[C@@]1(O)C[C@H](O[C@H]2C[C@H](N(C)C)[C@H](O[C@H]3C[C@H](O)[C@H](O[C@H]4CCC(=O)[C@H](C)O4)[C@H](C)O3)[C@H](C)O2)c2c(cc3c(c2O)C(=O)c2c(O)cccc2C3=O)[C@H]1C(=O)OC [ACLARUBICIN] | Not Active | Not Active | Not Active | Not Active | Not Active | Not Active | Not Active | Not Active | Not Active | 
Nc1nc2c(ncn2COCCO)c(=O)[nH]1 [ACYCLOVIR] | Not Active | Not Active | Not Active | Not Active | Not Active | Not Active | Not Active | Not Active | Not Active | 
Cc1c(C)c2c(c(C)c1O)CC[C@@](C)(CCC[C@H](C)CCC[C@H](C)CCCC(C)C)O2 [ALPHA-TOCOPHEROL] | Not Active | Not Active | Not Active | Not Active | Not Active | Not Active | Not Active | Not Active | Not Active | 
CN(C)c1nc(N(C)C)nc(N(C)C)n1 [ALTRETAMINE] | Not Active | Not Active | Not Active | Not Active | Not Active | Not Active | Not Active | Not Active | Not Active | 
Nc1c(Br)cc(Br)cc1CN[C@H]1CC[C@H](O)CC1 [AMBROXOL] | Not Active | Not Active | Not Active | Not Active | Not Active | Not Active | Not Active | Not Active | Not Active | 
NCCCCCC(=O)O [AMINOCAPROIC ACID] | Not Active | Not Active | Not Active | Not Active | Not Active | Not Active | Not Active | Not Active | Not Active | 
